Source: US20230158152A1, “PROTEOLYSIS REGULATOR AND METHOD FOR USING SAME” (MEDSHINE DISCOVERY INC., priority 2020, published 2023)

Key:
[1] = target: T1, Recombinant human-derived ALK (Homo sapiens, UniProt Q9UM73); experiment: Inhibitory activity of compounds against ALK kinase (time-resolved fluorescence resonance energy transfer); assay type: biochemical; details: 30 μM ATP, 50 nM ULight-poly GT peptide
T1 construct: BAG10812.1; 1058-1620 (terminal) amino acids; GST (N); made in house
Description: The inhibitory activity of the compounds on ALK kinase was detected by time-resolved fluorescence resonance energy transfer method, that is, the ratio of fluorescence signals at 665 nm/615 nm was used to represent the activity of the enzyme.
Assay buffer solution: 50 mM 2-[4-(2-hydroxyethyl)-1-piperazinyl]ethanesulfonic acid buffer solution (HEPES) (pH 7.5), 10 mM MgCl2, 1 mM EDTA 0.01%, polyoxyethylene lauryl ether (Brij 35), 2 mM dithiothreitol (DTT).
Enzyme: Recombinant human-derived ALK (gene accession number: BAG10812.1; 1058-1620 (terminal) amino acids) was expressed with a N-terminal GST fusion protein (90 kDa) using a baculovirus expression system.
Enzyme substrate: 50 nM ULight-poly GT polypeptide.
Detection: europium-labeled anti-phosphotyrosine (PT66) antibody.
1. Compounds dissolved in 100% DMSO were added to 384-well plates by acoustic technique; 2. Recombinant human-derived ALK enzyme and enzyme substrate (50 nM ULight-poly GT peptide) or zymolyte (30 μM ATP) were dissolved in freshly prepared assay buffer; 3. The above ALK enzyme and enzyme substrate in the buffer solution were transferred to reaction wells; 4. Then, the zymolyte in the buffer solution was added to the above reaction wells to initiate the reaction; 5. The plate was incubated at room temperature for 1 hour; 6. The detection mixture (PT66 antibody and EDTA) was added to terminate the reaction, and the mixture was incubated at room temperature for 60 minutes; 7. Then, the plate was read using a microplate reader to obtain the ratio of fluorescence signals at 665 nm/615 nm.
Data analysis: Emission ratio (665 nm/615 nm) in the original data was involved in the calculation of the inhibition rate. The concentration and inhibition rate were analyzed using XLfit software 205 mode (4 Parameters Logistic Model) to obtain IC50 value and curve.

[2] = test system: human lung cancer cell NCI-H2228; experiment: Anti-proliferative effect in human lung cancer cell NCI-H2228 (CellTiter-Glo); assay type: cell-based; details: NCI-H2228, 72 h, cell proliferation, cultured for 3 days
Description: In this assay, the inhibitory effect of assay compounds on cell proliferation was assayed in human lung cancer cell NCI-H2228.
(1) Promega CellTiter-Glo luminescent cell viability assay kit (Promega-G7573). (2) 2104 EnVision® plate reader, PerkinElmer.
The tumor cell line was cultured in a 37° C., 5% CO2 incubator according to the above-mentioned culture conditions. Cells were passaged periodically, and cells in logarithmic growth phase were used for plating.
(1). Cells were stained with trypan blue and viable cells were counted; (2). The cell concentration was adjusted to an appropriate concentration;
(3). 90 μL of cell suspension was added to each well of the culture plate as shown in the table above, and cell-free culture medium was added to the blank control well; (4). The plate was incubated in an incubator at 37° C., 5% CO2, and 100% relative humidity overnight.
Preparation of a mother solution storage plate with 400 times the starting compound concentration: the compounds were diluted serially with DMSO from the highest concentration to the lowest concentration. The plate was prepared freshly every time it was used.
(1). 78 μL of cell culture medium was added to a 96-well plate with a V-shaped bottom. […]
(1). […] The culture plate was left at room temperature for 10 minutes to stabilize the luminescence signal; (9). The luminescent signal was detected on a 2104 EnVision plate reader. […]

[3] = Pharmacokinetics of the compound in mice; assay type: in vivo, C57BL/6 (C57) mice
Text: In this study, C57BL male mice were selected as assay animals, and the LC/MS/MS method was used to quantitatively determine the compound concentration at different time points in the plasma of mice administered intravenously or orally with the assay compound, so as to evaluate pharmacokinetic profile of the assay compound in mice.
C57BL/6 (C57) mice (male, 17-20 g, 7-10 weeks old, from Shanghai lingchang).
A clear solution of the assay compound was intravenously injected into C57 mice via tail (fasted overnight) or administered to C57 mice by gavage (fasted overnight). 200 μL of blood was collected from the saphenous vein at 0.0833, 0.25, 0.5, 1, 2, 4, 8 and 24 h after intravenous administration, and placed in an anticoagulant tube (Jiangsu Kangjian Medical Co., Ltd.) supplemented with EDTA-K2. The mixture was thoroughly vortexed at 4° C. and centrifuged at 3200 g for 10 min. Blood was collected from the saphenous vein at 0.25, 0.5, 1, 2, 4, 6, 8 and 24 h after oral gavage administration, and placed in an anticoagulant tube (Jiangsu Kangjian Medical Co., Ltd.) supplemented with EDTA-K2. The mixture was thoroughly vortexed and centrifuged at 3200 g for 10 min. Blood drug concentration was determined by LC-MS/MS, and relevant pharmacokinetic parameters were calculated with the non-compartmental model Linear/log trapezoidal method using Phoenix WinNonlin 6.3 pharmacokinetic software.

[4] = male, C57BL/6, mouse, plasma, intravenous injection (2 mg/kg)

T1 sequence (Q9UM73 1058-1620): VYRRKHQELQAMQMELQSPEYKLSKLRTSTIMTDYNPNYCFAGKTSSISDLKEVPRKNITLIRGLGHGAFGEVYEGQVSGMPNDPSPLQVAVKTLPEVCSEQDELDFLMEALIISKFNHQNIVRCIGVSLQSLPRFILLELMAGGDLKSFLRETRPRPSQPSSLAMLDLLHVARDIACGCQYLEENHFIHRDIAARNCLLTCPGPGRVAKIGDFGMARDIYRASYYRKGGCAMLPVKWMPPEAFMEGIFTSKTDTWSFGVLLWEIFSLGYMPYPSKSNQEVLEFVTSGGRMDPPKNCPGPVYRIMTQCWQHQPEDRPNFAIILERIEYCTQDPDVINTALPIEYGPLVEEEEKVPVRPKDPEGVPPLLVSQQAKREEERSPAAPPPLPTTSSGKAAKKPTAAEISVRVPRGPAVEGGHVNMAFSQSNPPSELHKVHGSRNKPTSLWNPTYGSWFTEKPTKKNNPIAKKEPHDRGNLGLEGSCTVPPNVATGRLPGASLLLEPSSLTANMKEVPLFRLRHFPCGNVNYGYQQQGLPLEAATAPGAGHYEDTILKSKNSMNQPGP

Cc1cc(Nc2ncc(Cl)c(Nc3ccccc3S(=O)(=O)C(C)C)n2)c(OC(C)C)cc1C1CCN(CC(=O)NCCOc2ccc3occ(C4CCC(=O)NC4=O)c3c2)CC1 (stereo not drawn) [WX001]
IC50 [1]: 21.8 nM | IC50 [2]: 0.091 µM | Area under the curve (0-inf) ([3]; intravenous injection (2 mg/kg)): 3.69 µM·h | clearance [3, 4]: 10.3 mL/min/kg | half-life [3, 4]: 1.74 h | bioavailability ([3]; male, C57BL/6, mouse, plasma, oral (10 mg/kg), read-out: Bioavailability F): 11.7% | Area under the curve (0-inf) ([3]; oral (10 mg/kg)): 2.33 µM·h | Peak concentration ([3]; oral (10 mg/kg)): 0.68 µM | Time to peak ([3]; oral (10 mg/kg)): 0.75 h
